Data: paper PMC8760323, “Single-chain tandem macrocyclic peptides as a scaffold for growth factor and cytokine mimetics” (Communications Biology, 2022)
pKd: −log10 of the molar value. Read-outs that look alike come from different tables or passages of the source. Each block holds one substance with its values, some of them ahead of it.

Experiments:
[1] = system: Met; experiment: SRE reporter assay for HGF activity (Erk-SRE, HEK293 cells); type: cell-based, human; settings: N=1; for Normalized Firefly/Renilla: Fig. S6b/c, 420 nM rhHGF
Protocol: The Met-activating ability of HGF mimetic STaMPtides was evaluated by SRE reporter assay using the SRE reporter vector (QIAGEN, Hilden, Germany) according to the manufacturer’s instructions. Briefly, 1 μL of the SRE reporter vector was mixed with 0.6 μL of Attractene Transfection Reagent (QIAGEN) in 50 μL of Opti-MEM medium (Thermo Fisher Scientific) to form a transfection complex. Next, HEK293 cells at a density of 40,000 cells/well were seeded on 96-well cell culture plates with the transfection complex and incubated overnight in 5% CO2 at 37 °C. The cells were starved with Opti-MEM containing 0.5% FBS, 1% non-essential amino acid solution, and penicillin-streptomycin and incubated at 37 °C for 4 h. Next, the cells were stimulated by rhHGF, purified HGF mimetic STaMPtides, monomeric aMD4dY, or decellularized supernatant overnight in a 5% CO2 incubator at 37 °C. The signal intensity was detected using the dual-luciferase reporter assay system (Promega Corporation) and a Nivo plate reader (PerkinElmer, Inc., Waltham, MA, USA). Reporter activity was calculated as (luminescence intensity of Firefly luciferase)/(luminescence intensity of Renilla luciferase) and normalized by that without a stimulant in order to determine the relative reporter activity.

[2] = system: HuCCT1 cells; experiment: Migration assay (Transwell); type: cell-based, human; settings: 24 h, 1.3 nM rhHGF or 32 nM aMD4dY-PA22; for Relative migration: standardized by mock
Protocol: HuCCT1 cells at a density of 20,000 cells/well in RPMI 1640 medium supplemented with 0.5% FBS were added to 24-well Transwell inserts. In the lower layer, RPMI 1640 supplemented with 0.5% FBS with or without 1.3 nM rhHGF or 32 nM aMD4dY-PA22 was added. The cells were incubated for 24 h in 5% CO2 at 37 °C. The Transwell inserts were washed thrice with PBS, stained with 0.5% crystal violet (Nacalai Tesque)/methanol for 10 min, and washed with distilled water. Images of migrated cells were captured using BZ-X fluorescence microscopy (Keyence Corporation, Osaka, Japan), and cell migration levels were quantified by stained areas of the Transwell inserts.

[3] = system: Met; experiment: Cell-based phospho-Met ELISA (HuCCT1 cells); parameters: species or system human; settings: phospho-Met ELISA and Erk signaling reporter assay
Protocol: The phosphorylation level of Met was evaluated according to a previously reported method[6],[32], with slight modifications. In brief, HuCCT-1 cells at a density of 10,000 cells/well were seeded on 96-well cell culture plates and incubated overnight in 5% CO2 at 37 °C. The cells were stimulated by rhHGF, purified HGF mimetic STaMPtides, and monomeric aMD4dY for 10 min in a 5% CO2 incubator at 37 °C. Next, cells were fixed using 4% paraformaldehyde in phosphate-buffered saline (PBS) for 20 min. Cells were washed three times with PBS and blocked with 1% BSA and 0.02% Triton X-100 in PBS for 30 min at room temperature. Cells were incubated with 1:1000 diluted phospho-Met (Tyr1234/1235) (D26) XP Rabbit mAb (Cell Signaling Technology) supplemented with 1% BSA in PBS at 4 °C overnight. After washing three times with PBS, the cells were incubated with 1:1000 diluted […] HRP-linked IgG antibody (Cell Signaling Technology) supplemented with 1% BSA in PBS at room temperature for 3 h. Cells were washed four times with PBS and incubated with 100 μL TMB substrate for 30 min. The reaction was stopped with an equal volume of 0.2 N sulfuric acid, and absorbance was quantified at 450 nm by the Molecular Imager ChemiDoc XRS System (Bio-Rad).

[4] = target: T1, recombinant human Met ectodomain-Fc (Homo sapiens, UniProt P08581); experiment: SPR analysis, human Met ectodomain; type: binding
T1 construct: recombinant human Met ectodomain-Fc; purchased R&D Systems
Protocol: Binding constants of the STaMPtides and monomeric macrocyclic peptides to their corresponding receptor ectodomains were determined by SPR analysis using Biacore T200 (Cytiva). HBS-EP + buffer (Cytiva) containing 0.1% dimethyl sulfoxide (DMSO; Sigma-Aldrich, St. Louis, MO, USA) was used as the running buffer. As ligands, recombinant human Met ectodomain-Fc and human EPOR ectodomain-Fc were immobilized to around 1000 response units on CM5 sensor chips using a human antibody capture kit (Cytiva). STaMPtides and monomeric macrocyclic peptides were injected in five concentrations at a flow rate of 30 μL/min using a single-cycle kinetics method. Binding constants were quantified by analysis of the 1:1 binding model.

T1 sequence (P08581 25-932 limits assumed): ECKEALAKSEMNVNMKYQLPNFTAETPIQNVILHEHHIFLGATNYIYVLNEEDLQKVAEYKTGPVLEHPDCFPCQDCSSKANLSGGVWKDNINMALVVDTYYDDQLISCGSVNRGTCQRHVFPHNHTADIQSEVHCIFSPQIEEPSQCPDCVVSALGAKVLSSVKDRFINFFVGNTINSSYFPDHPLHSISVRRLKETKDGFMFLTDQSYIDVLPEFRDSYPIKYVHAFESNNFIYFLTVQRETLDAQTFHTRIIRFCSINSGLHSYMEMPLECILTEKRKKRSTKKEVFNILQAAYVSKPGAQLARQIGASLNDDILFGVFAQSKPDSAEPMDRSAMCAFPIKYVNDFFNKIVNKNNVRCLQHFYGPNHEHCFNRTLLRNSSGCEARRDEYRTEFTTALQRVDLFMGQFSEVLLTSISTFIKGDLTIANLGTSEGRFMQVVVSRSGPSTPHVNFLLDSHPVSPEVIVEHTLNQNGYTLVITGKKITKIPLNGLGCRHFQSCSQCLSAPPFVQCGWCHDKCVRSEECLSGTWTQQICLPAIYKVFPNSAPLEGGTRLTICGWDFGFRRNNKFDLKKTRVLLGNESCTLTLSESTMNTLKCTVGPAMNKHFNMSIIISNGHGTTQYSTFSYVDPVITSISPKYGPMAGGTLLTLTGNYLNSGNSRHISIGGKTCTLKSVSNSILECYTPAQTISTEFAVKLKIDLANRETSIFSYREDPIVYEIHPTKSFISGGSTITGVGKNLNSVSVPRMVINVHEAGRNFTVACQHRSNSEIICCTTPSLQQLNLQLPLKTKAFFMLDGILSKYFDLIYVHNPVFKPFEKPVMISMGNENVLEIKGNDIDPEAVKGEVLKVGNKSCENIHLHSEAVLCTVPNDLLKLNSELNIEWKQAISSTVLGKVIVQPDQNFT

Substance: rhHGF: recombinant human HGF (R&D Systems)
- Normalized F/R ([1]; Fig. S6a, 2.008 pM): 0.9952
- Normalized F/R ([1]; Fig. S6a, 10.04 pM): 0.9963
- Normalized F/R ([1]; Fig. S6a, 50.19 pM): 1.192
- Normalized F/R ([1]; Fig. S6a, 250.9 pM): 3.768
- Normalized F/R ([1]; Fig. S6a, 1.25471e-9 M): 8.884
- Normalized Firefly/Renilla ([1]; dilution 1000): 9.87
- Normalized Firefly/Renilla ([1]; dilution 10000): 1.622
- migration [2]: promoted migration of HuCCT1 cells
- Stained area ([2]; n1): 1050763 μm^2
- Stained/Total ([2]; n1): 0.03941
- Stained area ([2]; n2): 1394072 μm^2
- Stained/Total ([2]; n2): 0.04835
- Relative migration ([2]; n1): 2.3393
- Relative migration ([2]; n2): 2.87

- pKd ([4]; Biacore T200, single-cycle kinetics, 1:1 binding model, N = 3, read-out: dissociation constant (KD)): 9.00
- kd ([4]; Table S1, Average of N 1-3): 0.00046 M⁻¹ s⁻¹
- kd ([4]; Table S1, N 1): 0.0006 M⁻¹ s⁻¹
- pKd ([4]; Table S1, N 1, read-out: KD): 8.89
- kd ([4]; Table S1, N 2): 0.00038 M⁻¹ s⁻¹
- pKd ([4]; Table S1, N 2, read-out: KD): 9.05
- kd ([4]; Table S1, N 3): 0.00039 M⁻¹ s⁻¹
- pKd ([4]; Table S1, N 3, read-out: KD): 9.07
Substance: AET - CRQFNRRTHEVWNLDCG - AAPAAPA PAAPAAPA PAAPAA PG - CRQFNRRTHEVWNLDC (bicyclic or more) [aMD4dY-PA22, HGF mimetic STaMPtide, two aMD4dY macrocycles with a 22-amino-acid PA linker, secreted by C. glutamicum]
- Normalized F/R ([1]; Fig. S6d, supernatant, dilution 10): 4.6947
- Normalized F/R ([1]; Fig. S6d, supernatant, dilution 30): 5.172
- Normalized F/R ([1]; Fig. S6d, supernatant, dilution 90): 5.6777
- Normalized F/R ([1]; Fig. S6d, supernatant, dilution 810): 3.099
- Normalized F/R ([1]; Fig. S6d, supernatant, dilution 2430): 1.722
- Erk-SRE reporter activity of decellularized supernatants ([1]; rapid screening without purification): highest activity
- migration [2]: promoted migration of HuCCT1 cells
- Stained area ([2]; n1): 1905662 μm^2
- Stained/Total ([2]; n1): 0.07439
- Stained area ([2]; n2): 1256153 μm^2
- Stained/Total ([2]; n2): 0.04693
- Relative migration ([2]; n1): 4.415
- Relative migration ([2]; n2): 2.785
- Met phosphorylation and Erk-SRE signaling activation [3]: at a comparable level with rhHGF
